# Data taken from ChEMBL document CHEMBL1146173, “New pyrimido[5,4-b]indoles and [1]benzothieno[3,2-d]pyrimidines: high affinity ligands for the alpha(1)-adrenoceptor subtypes” (Bioorg Med Chem Lett, 2006).
# Experiments:
# [1] = target: T1, Alpha-1A adrenergic receptor (Rattus norvegicus) (UniProt P43140); test: Antagonist activity at adrenergic alpha 1A receptor in rat prostatic vas deferens; format: functional, tissue-based
# T1 sequence (whole entry): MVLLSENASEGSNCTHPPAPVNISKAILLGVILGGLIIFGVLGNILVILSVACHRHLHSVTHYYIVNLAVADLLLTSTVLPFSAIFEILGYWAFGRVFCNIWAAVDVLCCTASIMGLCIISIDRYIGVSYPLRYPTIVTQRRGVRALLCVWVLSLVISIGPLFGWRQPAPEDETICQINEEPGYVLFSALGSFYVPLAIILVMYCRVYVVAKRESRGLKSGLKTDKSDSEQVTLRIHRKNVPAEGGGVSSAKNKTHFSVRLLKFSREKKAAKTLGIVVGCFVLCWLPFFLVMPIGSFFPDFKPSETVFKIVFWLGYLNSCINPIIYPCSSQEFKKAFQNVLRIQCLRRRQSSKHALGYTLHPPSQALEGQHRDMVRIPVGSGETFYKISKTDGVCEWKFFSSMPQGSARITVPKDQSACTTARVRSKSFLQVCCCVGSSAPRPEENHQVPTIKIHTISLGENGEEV
# [2] = target: T2, Alpha-1D adrenergic receptor (Rattus norvegicus) (UniProt P23944); test: Antagonist activity at adrenergic alpha 1D receptor in rat thoracic aorta; format: functional, tissue-based
# T2 sequence (whole entry): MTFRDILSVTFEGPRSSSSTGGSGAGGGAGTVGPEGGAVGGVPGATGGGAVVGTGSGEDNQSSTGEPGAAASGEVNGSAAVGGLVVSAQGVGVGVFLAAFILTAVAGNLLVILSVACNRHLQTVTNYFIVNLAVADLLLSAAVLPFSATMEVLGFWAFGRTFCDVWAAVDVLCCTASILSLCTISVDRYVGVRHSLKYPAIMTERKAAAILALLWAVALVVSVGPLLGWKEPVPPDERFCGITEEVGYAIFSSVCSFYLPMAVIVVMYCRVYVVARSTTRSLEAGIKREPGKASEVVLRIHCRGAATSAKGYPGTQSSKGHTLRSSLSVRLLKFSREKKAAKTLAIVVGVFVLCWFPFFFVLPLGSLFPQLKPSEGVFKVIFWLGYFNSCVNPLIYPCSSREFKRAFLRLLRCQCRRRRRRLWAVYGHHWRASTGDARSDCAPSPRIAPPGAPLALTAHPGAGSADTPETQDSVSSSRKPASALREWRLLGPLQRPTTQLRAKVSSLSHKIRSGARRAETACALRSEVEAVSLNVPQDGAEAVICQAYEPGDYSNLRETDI
# [3] = target: T3, Alpha-1D adrenergic receptor (Homo sapiens, UniProt P25100); test: Displacement of [125I]BE2254 from human cloned adrenergic alpha 1D receptor expressed in HEK293 cells; format: cell-based; conditions: for Log Ki: hek293
# T3 sequence (P25100 whole entry): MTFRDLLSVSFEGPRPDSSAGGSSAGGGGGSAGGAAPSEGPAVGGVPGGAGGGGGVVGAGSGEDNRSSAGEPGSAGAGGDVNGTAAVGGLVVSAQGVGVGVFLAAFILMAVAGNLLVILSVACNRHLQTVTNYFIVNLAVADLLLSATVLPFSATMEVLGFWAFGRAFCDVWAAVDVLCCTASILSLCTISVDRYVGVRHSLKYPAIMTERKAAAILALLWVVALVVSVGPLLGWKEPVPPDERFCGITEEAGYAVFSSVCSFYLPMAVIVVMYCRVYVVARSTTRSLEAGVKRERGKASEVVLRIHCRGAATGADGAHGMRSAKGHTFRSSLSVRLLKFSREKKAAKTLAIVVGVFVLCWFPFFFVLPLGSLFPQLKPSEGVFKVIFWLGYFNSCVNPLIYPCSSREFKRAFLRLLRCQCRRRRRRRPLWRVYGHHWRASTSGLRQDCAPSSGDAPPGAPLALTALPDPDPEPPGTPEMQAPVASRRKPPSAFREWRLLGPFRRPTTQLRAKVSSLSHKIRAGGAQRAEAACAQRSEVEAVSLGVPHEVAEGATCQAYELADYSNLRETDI
# [4] = target: T4, Alpha-1B adrenergic receptor (Homo sapiens, UniProt P35368); test: Displacement of [125I]BE2254 from human cloned adrenergic alpha 1B receptor expressed in HEK293 cells; format: cell-based
# T4 sequence (P35368 whole entry): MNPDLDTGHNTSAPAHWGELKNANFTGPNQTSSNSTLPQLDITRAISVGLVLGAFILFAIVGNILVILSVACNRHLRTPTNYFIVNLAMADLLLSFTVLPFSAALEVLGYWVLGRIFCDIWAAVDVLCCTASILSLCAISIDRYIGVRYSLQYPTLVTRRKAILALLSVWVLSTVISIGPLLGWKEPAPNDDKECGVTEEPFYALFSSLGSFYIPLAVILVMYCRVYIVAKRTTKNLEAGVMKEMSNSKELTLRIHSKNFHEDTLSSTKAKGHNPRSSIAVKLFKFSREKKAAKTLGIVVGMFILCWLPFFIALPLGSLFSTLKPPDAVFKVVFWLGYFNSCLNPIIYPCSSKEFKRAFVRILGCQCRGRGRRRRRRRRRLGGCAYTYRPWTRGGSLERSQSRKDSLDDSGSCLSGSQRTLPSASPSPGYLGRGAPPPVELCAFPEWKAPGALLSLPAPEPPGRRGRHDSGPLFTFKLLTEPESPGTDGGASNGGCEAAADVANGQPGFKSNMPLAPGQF
# [5] = target: T5, Alpha-1A adrenergic receptor (Homo sapiens, UniProt P35348); test: Displacement of [125I]BE2254 from human cloned adrenergic alpha 1A receptor expressed in HEK293 cells; format: cell-based
# T5 sequence (P35348 whole entry): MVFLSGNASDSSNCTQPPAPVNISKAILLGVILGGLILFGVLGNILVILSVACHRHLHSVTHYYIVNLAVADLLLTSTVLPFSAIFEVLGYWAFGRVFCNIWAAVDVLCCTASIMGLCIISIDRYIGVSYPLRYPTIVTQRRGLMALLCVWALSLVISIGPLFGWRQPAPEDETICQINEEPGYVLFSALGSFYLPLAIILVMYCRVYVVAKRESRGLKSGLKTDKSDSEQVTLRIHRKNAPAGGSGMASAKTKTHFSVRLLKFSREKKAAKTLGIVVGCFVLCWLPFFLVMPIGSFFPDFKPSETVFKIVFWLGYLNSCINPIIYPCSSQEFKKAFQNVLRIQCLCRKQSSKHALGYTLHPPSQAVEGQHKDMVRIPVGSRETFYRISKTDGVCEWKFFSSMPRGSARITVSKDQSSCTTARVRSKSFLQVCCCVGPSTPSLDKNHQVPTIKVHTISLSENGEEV
# [6] = target: T6, Alpha-1B adrenergic receptor (Rattus norvegicus) (UniProt P15823); test: Antagonist activity at adrenergic alpha 1B receptor in rat spleen; format: functional, tissue-based
# T6 sequence (whole entry): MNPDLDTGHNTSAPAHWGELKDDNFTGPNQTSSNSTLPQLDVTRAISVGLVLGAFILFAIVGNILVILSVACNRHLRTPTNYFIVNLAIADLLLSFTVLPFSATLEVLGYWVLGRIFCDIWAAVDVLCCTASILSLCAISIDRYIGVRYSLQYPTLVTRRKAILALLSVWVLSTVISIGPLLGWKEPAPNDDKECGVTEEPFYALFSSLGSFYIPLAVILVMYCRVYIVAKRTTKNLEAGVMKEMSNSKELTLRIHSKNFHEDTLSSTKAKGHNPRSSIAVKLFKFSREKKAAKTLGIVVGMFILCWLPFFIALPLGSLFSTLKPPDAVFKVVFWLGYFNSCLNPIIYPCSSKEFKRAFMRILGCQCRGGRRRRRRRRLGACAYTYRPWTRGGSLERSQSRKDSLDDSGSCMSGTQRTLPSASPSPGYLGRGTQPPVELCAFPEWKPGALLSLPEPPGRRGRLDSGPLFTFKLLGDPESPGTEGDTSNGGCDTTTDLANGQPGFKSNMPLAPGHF
Structure (SMILES),pKb [1],pKb [2],Ki [3] [nM],Ki [4] [nM],Ki [5] [nM],pKb [6],Log Ki [3],Log Ki ([5]; hek293)
COc1ccc(Cl)cc1N1CCN(CCn2c(=O)[nH]c3c([nH]c4ccccc43)c2=O)CC1,–,–,1.55,10.7,8.32,–,–,–
Cn1c(=O)n(CCN2CCN(c3ccc(Cl)c(Cl)c3)CC2)c(=O)c2c1c1ccccc1n2C,–,–,437,603,182,–,–,–
COc1ccccc1N1CCN(CCn2c(C)nc3c4ccccc4nc-3c2O)CC1,8.53,9.24,–,–,–,9.73,-9.39,-8.52
COc1ccc(Cl)cc1N1CCN(CCn2c(=O)[nH]c3c(sc4ccccc43)c2=O)CC1,–,–,13.5,91.2,53.7,–,–,–
COc1ccc(Cl)cc1N1CCN(CCn2c(C)nc3c(sc4ccccc43)c2=O)CC1,7.52,7.57,0.832,17.4,3.47,8.91,–,–
COc1ccccc1N1CCN(CCn2c(=O)[nH]c3c(sc4ccccc43)c2=O)CC1,8.61,8.89,1.26,8.91,3.31,8.44,–,–
O=c1[nH]c2c(sc3ccccc32)c(=O)n1CCN1CCN(c2ccc(Cl)c(Cl)c2)CC1,–,–,309,19100,4270,–,–,–
Cc1nc2c([nH]c3ccccc32)c(=O)n1CCN1CCN(c2ccc(Cl)c(Cl)c2)CC1,–,–,7.41,83.2,30.2,–,–,–

# Results, then the compound that gave them:
pKb [1],pKb [2],Ki [3] [nM],Ki [4] [nM],Ki [5] [nM],pKb [6],Log Ki [3],Log Ki ([5]; hek293),Structure (SMILES)
8.65,8.98,0.398,17.4,1.48,7.63,–,–,COc1ccccc1N1CCN(CCn2c(C)nc3c(sc4ccccc43)c2=O)CC1
8.46,8.71,–,–,0.288,8.67,-9.44,–,COc1ccccc1N1CCN(CCn2c(=O)[nH]c3c([nH]c4ccccc43)c2=O)CC1
7.6,8.39,0.166,4.47,1.32,8.68,–,–,COc1ccc(Cl)cc1N1CCN(CCn2c(C)nc3c([nH]c4ccccc43)c2=O)CC1
